Results from patent US8541434B2, “Ethynyl-substituted pyridine and pyrimidine derivatives and their use in treating viral infections” (Merck Sharp & Dohme Corp., priority 2008, dated 2013).

System: HCV replicon cells
Test: Cell-based HCV replicon assay (replicon RNA level by real time PCR, Taqman)
Conditions: Hepatitis C virus, 72 h, harvested on day 3, EC90 = concentration necessary to achieve ΔCT=3.2 over the baseline, read-out: EC90 Range
Procedure: Assays Cell-Based HCV Replicon Assay
To measure cell-based anti-HCV activity of the compounds of the present invention, replicon cells were seeded at 5000 cells/well in 96-well collagen I-coated Nunc plates in the presence of the compound of the invention. […] The final concentration of DMSO was 0.5%, fetal bovine serum was 10%, in the assay media. Cells were harvested on day 3 by the addition of 1× cell lysis buffer (Ambion cat #8721). The replicon RNA level was measured using real time PCR (Taqman assay). The amplicon was located in 5B. […] GAPDH RNA was used as endogenous control and was amplified in the same reaction as NS5B (multiplex PCR) using primers and VIC-labeled probe recommended by the manufacturer (PE Applied Biosystem). The real-time RT-PCR reactions were run on ABI PRISM 7900HT Sequence Detection System using the following program: 48° C. for 30 min, 95° C. for 10 min, 40 cycles of 95° C. for 15 sec, 60° C. for 1 min. The ACT values (CT5B-CTGAPDH) were plotted against the concentration of test compound and fitted to the sigmoid dose-response model using GraphPad PRISM software. EC50 was defined as the concentration of inhibitor necessary to achieve ΔCT=1 over the projected baseline; EC90 the concentration necessary to achieve ΔCT=3.2 over the baseline. Alternatively, to quantitate the absolute amount of replicon RNA, a standard curve was established by including serially diluted T7 transcripts of replicon RNA in the Taqman assay. All Taqman reagents were from PE Applied Biosystems. Such an assay procedure was described in detail in e.g. Malcolm et al., Antimicrobial Agents and Chemotherapy 50: 1013-1020 (2006).

| SMILES | EC90 |
| --- | --- |
| CCOc1ccc(C#Cc2c(Cl)nc(N(C)C)nc2N[C@@H]2C[C@H](CO)[C@@H](O)[C@H]2O)cn1 [Compound 23] | > 5000 nM |
| Cc1nc(NCCCO)nc(N[C@@H]2C[C@H](CO)[C@H]3OC(C)(C)O[C@H]32)c1C#Cc1cccs1 [Compound 100] | 500 to 5000 nM |
| CCNc1nc(C)c(C#Cc2ccc(OC)nc2)c(N[C@@H]2C[C@H](CO)[C@@H](O)[C@H]2O)n1 [Compound 91] | ≤ 500 nM |
| Nc1nc(Cl)c(C#Cc2ccccc2Cl)c(N[C@@H]2C[C@H](CO)[C@@H](O)[C@H]2O)n1 [Compound 60] | 500 to 5000 nM |
| COc1ccc(C#Cc2c(Cl)nc(N)nc2N[C@@H]2C[C@H](CO)[C@@H](O)[C@H]2O)c(C)n1 [Compound 3] | ≤ 500 nM |
| Cc1nc(NCC2CC2)nc(N[C@@H]2C[C@H](CO)[C@@H](O)[C@H]2O)c1C#Cc1ccc(-c2ccccn2)s1 [Compound 104] | 500 to 5000 nM |
| COc1ccc(C#Cc2c(Cl)nc(N)nc2N[C@@H]2C[C@H](CO)[C@@H](O)[C@H]2O)c(C)c1 [Compound 29] | 500 to 5000 nM |
| CCOc1ccc(C#Cc2c(Cl)nc(NCC(F)(F)F)nc2N[C@@H]2C[C@H](CO)[C@@H](O)[C@H]2O)cn1 [Compound 74] | ≤ 500 nM |
| Nc1nc(Cl)c(C#Cc2ccc(F)nc2)c(N[C@@H]2C[C@H](CO)[C@@H](O)[C@H]2O)n1 [Compound 8] | 500 to 5000 nM |
| COCCNc1nc(C)c(C#Cc2ccc(-c3ccccn3)s2)c(N[C@@H]2C[C@H](CO)[C@@H](O)[C@H]2O)n1 [Compound 105] | 500 to 5000 nM |
| CSc1ccc(C#Cc2c(Cl)nc(N)nc2N[C@@H]2C[C@H](CO)[C@@H](O)[C@H]2O)c(C)n1 [Compound 64] | ≤ 500 nM |
| CCOc1ccc(C#Cc2c(C)nc(NCCOC)nc2N[C@@H]2C[C@H](CO)[C@@H](O)[C@H]2O)cn1 [Compound 81] | ≤ 500 nM |
| Nc1nc(Cl)c(C#Cc2ccc(Cl)nc2)c(N[C@@H]2C[C@H](CO)[C@@H](O)[C@H]2O)n1 [Compound 9] | > 5000 nM |
| Cc1nc(-c2ccccc2)c(C#Cc2c(Cl)nc(N)nc2N[C@@H]2C[C@H](CO)[C@@H](O)[C@H]2O)s1 [Compound 35] | ≤ 500 nM |
| Cn1cncc1C#Cc1c(Cl)nc(N)nc1N[C@@H]1C[C@H](CO)[C@@H](O)[C@H]1O [Compound 30] | > 5000 nM |
| CSCCNc1nc(C)c(C#Cc2ccc(-c3ccccn3)s2)c(N[C@@H]2C[C@H](CO)[C@@H](O)[C@H]2O)n1 [Compound 96] | ≤ 500 nM |
| COCCNc1nc(Cl)c(C#Cc2ccc(OC)nc2C)c(N[C@@H]2C[C@H](CO)[C@@H](O)[C@H]2O)n1 [Compound 67] | ≤ 500 nM |
| Nc1nc(Cl)c(C#Cc2ncc[nH]2)c(N[C@@H]2C[C@H](CO)[C@@H](O)[C@H]2O)n1 [Compound 13] | 500 to 5000 nM |
| Cc1nc(OCC(F)(F)F)ccc1C#Cc1c(Cl)nc(NCC(F)(F)F)nc1N[C@@H]1C[C@H](CO)[C@@H](O)[C@H]1O [Compound 70] | 500 to 5000 nM |
| Cc1nc(-c2ccc(C#Cc3c(Cl)nc(N)nc3N[C@@H]3C[C@H](CO)[C@@H](O)[C@H]3O)s2)cs1 [Compound 39] | 500 to 5000 nM |
| Nc1nc(Cl)c(C#Cc2cncnc2)c(N[C@@H]2C[C@H](CO)[C@@H](O)[C@H]2O)n1 [Compound 45] | 500 to 5000 nM |
| COCCNc1nc(C)c(C#Cc2ccc(OC)nc2)c(N[C@@H]2C[C@H](CO)[C@@H](O)[C@H]2O)n1 [Compound 77] | ≤ 500 nM |
| CCOc1ccc(C#Cc2c(Cl)nc(NCC(F)(F)F)nc2N[C@@H]2C[C@H](CO)[C@@H](O)[C@H]2O)c(C)n1 [Compound 72] | ≤ 500 nM |
| CNC(=O)c1ncccc1C#Cc1c(Cl)nc(N)nc1N[C@@H]1C[C@H](CO)[C@@H](O)[C@H]1O [Compound 57] | 500 to 5000 nM |
| CCOCCNc1nc(C)c(C#Cc2ccsc2)c(N[C@@H]2C[C@H](CO)[C@@H](O)[C@H]2O)n1 [Compound 103] | ≤ 500 nM |
